Structures can show the parent of a compound that is named as a salt. ± gives the standard deviation of the averaged measurements.
How the values were obtained:
[1] = system: Homo sapiens (human subject panel, olfactory perception); assay: perceived odor familiarity rating (rating 0-100); higher = more familiar
Description: (§1)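 Human olfactory psychophysics. 55 healthy subjects (after excluding 6 low performers) sniffed 1 mL of each odorant diluted in paraffin oil (vials, two dilutions per molecule, 20 molecules presented twice). Each subject rated intensity, pleasantness and familiarity on a 0-100 slider, starting at 50 and required to move. Ratings were given only when the subject reported detecting a smell; per-subject ratings are averaged over subjects.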

[2] = system: Homo sapiens (human subject panel, olfactory perception); assay: perceived odor intensity rating (rating 0-100); higher = stronger perceived smell
Description: as §1

[3] = system: Homo sapiens (human subject panel, olfactory perception); assay: perceived odor pleasantness rating (rating 0-100); higher = more pleasant
Description: as §1

[4] = odor dilution in paraffin oil: 1/10
[5] = odor dilution in paraffin oil: 1/1,000
[6] = odor dilution in paraffin oil: 1/100,000
[7] = odor dilution in paraffin oil: 1/10,000,000

SMILES | perceived odor familiarity rating [1, 4] | perceived odor familiarity rating [1, 5] | perceived odor intensity rating [2, 4] | perceived odor intensity rating [2, 5] | perceived odor pleasantness rating [3, 4] | perceived odor pleasantness rating [3, 5] | perceived odor familiarity rating [1, 6] | perceived odor intensity rating [2, 6] | perceived odor pleasantness rating [3, 6] | perceived odor familiarity rating [1, 7] | perceived odor intensity rating [2, 7] | perceived odor pleasantness rating [3, 7]
OC1CSC(O)CS1 (stereo unspecified) [2,5-Dihydroxy-1,4-dithiane] | 50.9 ± 35 | 51.5 ± 32 | 86.4 ± 16 | 88.4 ± 16 | 16.9 ± 25 | 13.8 ± 22 | – | – | – | – | – | –
COC1=C(C)OC(C)C1=O (stereo unspecified) [2,5-Dimethyl-4-methoxy-3(2H)-furanone] | – | 45.4 ± 33 | – | 74.8 ± 24 | – | 26 ± 19 | 44.1 ± 28 | 56.3 ± 31 | 28.2 ± 23 | – | – | –
Cc1ccc(C)[nH]1 [2,5-Dimethylpyrrole] | – | 62 ± 28 | – | 71.4 ± 23 | – | 53 ± 27 | 48 ± 31 | 50.6 ± 30 | 48.2 ± 26 | – | – | –
Cc1cnc(C)cn1 [2,5-dimethyl pyrazine] | – | – | – | – | – | – | 43.8 ± 30 | 50.3 ± 30 | 38.5 ± 21 | 37.1 ± 28 | 29.3 ± 31 | 48.4 ± 24
Cc1cccc(C)n1 [2,6-Dimethylpyridine] | – | 47.3 ± 32 | – | 78.1 ± 20 | – | 29.8 ± 24 | 42.5 ± 31 | 54.1 ± 32 | 35.3 ± 23 | – | – | –
CCC(C)c1nccs1 (stereo unspecified) [2-(1-Methylpropyl)thiazole] | – | 41.3 ± 32 | – | 83.9 ± 17 | – | 25.7 ± 25 | 43.9 ± 31 | 55.6 ± 31 | 31.8 ± 23 | – | – | –
CSCCO [2-(Methylthio)ethanol] | – | 53.8 ± 34 | – | 77.7 ± 23 | – | 34.1 ± 31 | 37.4 ± 31 | 32.3 ± 29 | 40 ± 18 | – | – | –
CC(=O)c1ncc(C)nc1C [2-Acetyl-3,5(6)-dimethylpyrazine] | – | 58.6 ± 36 | – | 85.4 ± 17 | – | 31.5 ± 32 | 58.1 ± 31 | 65.1 ± 26 | 49.4 ± 29 | – | – | –
CCc1nccnc1C(C)=O [2-Acetyl-3-ethylpyrazine] | – | 57.2 ± 29 | – | 79.4 ± 20 | – | 25.7 ± 23 | 52.4 ± 30 | 46.3 ± 30 | 41.2 ± 23 | – | – | –
CC(=O)c1ccc(C)o1 [2-Acetyl-5-methylfuran] | – | 38.2 ± 28 | – | 71.5 ± 22 | – | 36.5 ± 25 | 38.2 ± 29 | 25.2 ± 31 | 47.4 ± 27 | – | – | –
CC(=O)c1nccs1 [2-Acetylthiazole] | – | 69.3 ± 28 | – | 80 ± 20 | – | 46.3 ± 31 | 58.3 ± 31 | 76.3 ± 17 | 47.7 ± 30 | – | – | –
CC(=O)c1cccs1 [2-Acetylthiophene] | – | – | – | – | – | – | 42.4 ± 30 | 43.9 ± 29 | 46 ± 23 | 44.9 ± 30 | 25.3 ± 28 | 52.4 ± 25
CC(=O)c1ccccc1N [2-Aminoacetophenone] | – | 54.8 ± 30 | – | 71.9 ± 24 | – | 57.5 ± 27 | 52.7 ± 30 | 66.7 ± 27 | 58.4 ± 26 | – | – | –
CCOc1nccs1 [2-Ethoxythiazole] | – | 45.2 ± 30 | – | 79.9 ± 19 | – | 24.3 ± 23 | 42.5 ± 28 | 52.7 ± 30 | 37.6 ± 25 | – | – | –
CCc1nccnc1C [2-Ethyl-3-methylpyrazine] | – | 55.7 ± 32 | – | 82.1 ± 17 | – | 31.2 ± 26 | 60 ± 31 | 70.5 ± 21 | 43.9 ± 29 | – | – | –
CCc1nc(C)cs1 [2-Ethyl-4-methylthiazole] | – | 43.6 ± 30 | – | 87 ± 15 | – | 16.6 ± 19 | 45.6 ± 29 | 73.1 ± 21 | 33.6 ± 24 | – | – | –
CCC1(O)C2(C)CCC(C2)C1(C)C (stereo unspecified) [2-Ethylfenchol] | – | 58.9 ± 33 | – | 73.6 ± 27 | – | 37.2 ± 27 | 47.7 ± 35 | 39.1 ± 34 | 45.5 ± 25 | – | – | –
CCc1ccco1 [2-Ethylfuran] | – | 45.4 ± 31 | – | 52.4 ± 31 | – | 34.4 ± 24 | 31.4 ± 29 | 42.2 ± 35 | 38.3 ± 30 | – | – | –
CCCCC(CC)C(=O)O (stereo unspecified) [2-Ethylhexanoic acid] | 46.6 ± 29 | 47.7 ± 28 | 73.7 ± 23 | 47.8 ± 31 | 28.4 ± 21 | 38.1 ± 22 | – | – | – | – | – | –
O=CSCc1ccco1 [2-Furanmethanethiol formate] | – | – | – | – | – | – | 54.5 ± 36 | 87.3 ± 14 | 21.5 ± 23 | 58.5 ± 35 | 86.9 ± 14 | 24.3 ± 28
CC(=O)c1ccccc1O [2-Hydroxyacetophenone] | – | 49.6 ± 33 | – | 80.7 ± 17 | – | 29.5 ± 25 | 43.8 ± 29 | 48.5 ± 30 | 39.2 ± 24 | – | – | –
CC(C)Cc1nccs1 [2-Isobutylthiazole] | – | – | – | – | – | – | 46.3 ± 29 | 61.3 ± 26 | 41.4 ± 26 | 32.4 ± 31 | 31.2 ± 31 | 46.4 ± 23
CC(C)c1ccccc1O [2-Isopropylphenol] | – | 49 ± 34 | – | 84.3 ± 14 | – | 28.8 ± 22 | 36 ± 29 | 38.8 ± 30 | 44.4 ± 20 | – | – | –
CC(O)C(C)S (stereo unspecified) [2-Mercapto-3-butanol] | – | – | – | – | – | – | 41.6 ± 32 | 45.9 ± 32 | 40 ± 26 | 37 ± 26 | 30.2 ± 30 | 50.2 ± 23
COc1cncc(C(C)C)n1 [2-Methoxy-3(5 or 6)-isopropylpyrazine] | – | 50 ± 32 | – | 80.8 ± 23 | – | 27.3 ± 26 | 45.3 ± 28 | 58 ± 30 | 33.3 ± 22 | – | – | –
COc1nccnc1C [2-Methoxy-3-methylpyrazine] | – | 63 ± 31 | – | 87.9 ± 13 | – | 34.3 ± 34 | 64.6 ± 31 | 79.5 ± 17 | 52.6 ± 31 | – | – | –
